From US7851637B2, “Compounds and methods for inhibiting the interaction of BCL proteins with binding partners” (Infinity Pharmaceuticals, Inc., priority 2004, dated 2010)
Like-named read-outs stand apart in the source and are kept apart here.

Experiments:
[1] = test system: RL Human Follicular Lymphoma Cell Line; assay: Alamar blue cytotoxicity assay in RL cells; assay type: cell-based; conditions: Homo sapiens, 72 h incubation, read-out: Bcl RL Alamar Blue IC50
Experimental: (§1) When RL-cells are exposed to isoxazolidine compounds of the present invention, the inhibitors show a dose-dependent cell-killing in the Alamar blue cytoxicity assay with IC50 values of from about 100 μM to about 1 μM (See Examples). When Panc1 cells are exposed to the isoxazolidine compounds of the present invention in combination with camptothecin, the inhibitors show a synergistic dose-dependent cell killing in the propidium iodide exclusion cell survival assay with IC50 values of from about 100 μM to about 1 μM (See Examples).
• 1) Using 96 well plates, compounds were serially diluted in DMSO from 9 mM to 4 uM • 2) Assay plates were prepared by diluting samples 310 fold into 150 ul of medium containing 30,000 cells/well resulting in a final DMSO concentration of 0.3% and a concentration range from 29 uM to 0.013 uM for each compound. • 3) Plates were incubated at 37 C and 5% CO2 for 72 h • 4) After 72 h, Alamar blue reagent was added to each well and plates read according to manufacturer's instructions
In vitro cytotoxicity data for RL cells is presented below for various compounds of the invention.

Bcl-xL = Bcl-xL (Homo sapiens, UniProt Q07817); assay: Bcl-xL binding affinity analysis (fluorescence polarization binding assay); design: scale not given here
Outline: (§2)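 Sensitive, quantitative cell-free test: compound incubated with protein, then polarization of emitted fluorescence recorded to gauge affinity.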

Bcl-2 = Bcl-2 (Homo sapiens, UniProt P10415); assay: Bcl-2 binding affinity analysis (fluorescence polarization binding assay)
Outline: as §2

[2] = test system: Human Pancreatic Cancer Cell Line Panc1; assay: Cell death assay (propidium iodide/Hoechst) in Panc1 cells with or without camptothecin; assay type: cell-based; conditions: 72 hours, % cell death by propidium iodide/Hoechst
Experimental: as §1
• 1) Compounds were serially diluted in DMSO from a 9 mM stock to a final concentration of 0.004 mM in a 96 well plate. • 2) Assay plates were prepared by diluting compounds 310 fold into 150 ul of medium containing 10,000 cells/well, with or without 3 uM Camptothecin, resulting in a final DMSO concentration of 0.3% and a compound concentration range from 29 uM to […] for each compound. • 3) Assay plates were incubated at 37 C, 5% CO2 for 72 hours. • 4) After 72 hours, propidium iodide and Hoechst dye were added to each well according to manufacturer's instruction. • 5) Plates were imaged on a fluorescence microscope at wavelengths Ex560/Em650 (Propidium iodide) and Ex360/Em465 (Hoechst) • 6) MetaMorph imaging software was used to determine % cell death by dividing the number of propidium iodide stained cells (dead cells) by the number of Hoechst stained cells (all cells), multipled by 100, in each field.
Panc1 invitro cellular data is presented below for various compounds of the invention.

[3] = Homo sapiens, PANC-1, without camptothecin, read-out: Panc1 − Cpt IC50
[4] = with 3 uM Camptothecin, read-out: Panc1 + Cpt IC50

Sequence of Bcl-2 (P10415 whole entry): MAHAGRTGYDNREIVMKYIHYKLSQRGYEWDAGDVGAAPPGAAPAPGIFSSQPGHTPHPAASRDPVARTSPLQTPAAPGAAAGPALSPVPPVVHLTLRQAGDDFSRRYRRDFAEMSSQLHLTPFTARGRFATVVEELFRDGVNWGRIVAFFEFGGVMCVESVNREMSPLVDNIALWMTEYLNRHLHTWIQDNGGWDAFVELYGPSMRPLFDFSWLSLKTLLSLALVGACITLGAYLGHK
Sequence of Bcl-xL (Q07817 whole entry): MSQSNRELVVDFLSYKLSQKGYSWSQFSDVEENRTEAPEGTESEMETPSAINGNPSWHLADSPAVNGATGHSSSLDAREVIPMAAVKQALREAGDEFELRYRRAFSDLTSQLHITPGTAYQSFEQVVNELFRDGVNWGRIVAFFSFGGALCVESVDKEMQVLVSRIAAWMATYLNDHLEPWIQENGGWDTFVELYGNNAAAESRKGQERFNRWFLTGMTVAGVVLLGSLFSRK

SMILES | Bcl-XL binding affinity Ki (Bcl-xL) | Ki (Bcl-2) | IC50 [1] | IC50 [2, 3] | IC50 [2, 4]
COC(=O)CCNC(=O)c1cccc(-c2cccc(CN3O[C@@H](CO)[C@@H]([C@H](C)O)[C@H]3C(=O)N[C@H]3C[C@H]4C[C@@H]([C@@H]3C)C4(C)C)c2)c1 [Compound 190] |  |  | 2 to 5 µM |  | 
C[C@@H]1[C@@H](NC(=O)[C@@H]2C([C@H](C)O)[C@H](CO)ON2Cc2cccc(CN(CCN(C)C)Cc3ccccc3OC(F)(F)F)c2)C[C@H]2C[C@@H]1C2(C)C (some centres unmarked) [Compound 365] | ♯ | < 0.8 µM | < 2 µM |  | 
COc1c(CN2O[C@@H](CO)[C@@H]([C@H](C)O)[C@H]2C(=O)N[C@H]2C[C@H]3C[C@@H]([C@@H]2C)C3(C)C)cccc1-c1cccc(C(=O)N[C@@H](Cc2ccccc2)CN(C)C)c1 [Compound 477] | ♯ | < 0.8 µM | < 2 µM |  | 
C[C@@H]1[C@@H](NC(=O)[C@@H]2C([C@H](C)O)[C@H](CO)ON2Cc2cccc(CN(Cc3ccccc3)[C@@H](CCc3ccccc3)CN(C)C)c2)C[C@H]2C[C@@H]1C2(C)C (some centres unmarked) [Compound 420] | ♯ | < 0.8 µM | < 2 µM |  | 
CC(C)C(CN(C)C)NC(=O)c1cccc(CN2OC(CO)C(C(C)O)C2C(=O)NC2CC3CC(C2C)C3(C)C)c1 (centres unmarked) [Compound 502] | ♯ | < 0.8 µM | > 5 µM |  | 
CC(O)C1C(CO)ON(Cc2cccc(CN(Cc3ccccc3)C3CCN(C)C3)c2)C1C(=O)NC1CC2CC(C1C)C2(C)C (centres unmarked) [Compound 429] | ♯ | < 0.8 µM | 2 to 5 µM |  | 
CC(O)C1C(CO)ON(Cc2cccc(CN(CCN(C)C)Cc3cccc4ccccc34)c2)C1C(=O)NC1CC2CC(C1C)C2(C)C (centres unmarked) [Compound 368] | ♯ | < 0.8 µM | 2 to 5 µM |  | 
CC(=O)Oc1cccc(CN(CCN(C)C)Cc2cccc(CN3OC(CO)C(C(C)O)C3C(=O)NC3CC4CC(C3C)C4(C)C)c2)c1 (centres unmarked) [Compound 405] | ♯ | < 0.8 µM | 2 to 5 µM |  | 
CC(O)C1C(CO)ON(Cc2cccc(CN(CCN(C)C)Cc3cccc(Oc4ccccc4)c3)c2)C1C(=O)NC1CC2CC(C1C)C2(C)C (centres unmarked) [Compound 374] | ♯ | < 0.8 µM | 2 to 5 µM |  | 
CC(O)C1C(CO)ON(Cc2cccc(CN(CCN(C)C)Cc3cccc(F)c3)c2)C1C(=O)NC1CC2CC(C1C)C2(C)C (centres unmarked) [Compound 356] | ♯ | < 0.8 µM | > 5 µM |  | 
CC(O)C1C(CO)ON(Cc2cccc(CN(Cc3ccccc3)C(CC3CCCCC3)CN(C)C)c2)C1C(=O)NC1CC2CC(C1C)C2(C)C (centres unmarked) [Compound 437] | ♯ | < 0.8 µM | > 5 µM |  | 
C[C@@H]1[C@@H](NC(=O)[C@@H]2[C@H]([C@H](C)O)[C@H](CO)ON2Cc2cccc(-c3cccc(C(=O)NCCN(C)C)c3)c2OCC2CC2)C[C@H]2C[C@@H]1C2(C)C [Compound 497] | ♯ | < 0.8 µM |  | > 2.5 µM | > 2.5 µM
CCOc1c(CN2O[C@@H](CO)[C@@H]([C@H](C)O)[C@H]2C(=O)N[C@H]2C[C@H]3C[C@@H]([C@@H]2C)C3(C)C)cccc1-c1cccc(C(=O)N[C@H](CC(C)C)CN(C)C)c1 [Compound 494] | ♯ | < 0.8 µM |  | > 2.5 µM | > 2.5 µM
C[C@@H]1[C@@H](NC(=O)[C@@H]2[C@H]([C@H](C)O)[C@H](CO)ON2Cc2cccc(N(CCc3ccccc3)CCN(C)C)c2)C[C@H]2C[C@@H]1C2(C)C [Compound 578] | ♯ | < 0.8 µM |  | > 2.5 µM | 1.8 to 2.5 µM
CCC(C)C(CN(C)C)N(Cc1cccc(CN2OC(CO)C(C(C)O)C2C(=O)NC2CC3CC(C2C)C3(C)C)c1)Cc1ccccc1Br (centres unmarked) [Compound 416] | ♯ | < 0.8 µM |  | > 2.5 µM | > 2.5 µM

Now from value to molecule, other results behind:

Bcl-XL binding affinity Ki (Bcl-xL) | Ki (Bcl-2) | SMILES | IC50 [1] | IC50 [2, 3] | IC50 [2, 4]
♯ | < 0.8 µM | C[C@@H]1[C@@H](NC(=O)[C@@H]2[C@H]([C@H](C)O)[C@H](CO)ON2Cc2cccc(NC(=O)N[C@@H](Cc3ccccc3)CN(C)C)c2)C[C@H]2C[C@@H]1C2(C)C [Compound 570] | > 5 µM |  | 
♯ | < 0.8 µM | CC(O)C1C(CO)ON(Cc2cccc(CN(CCN(C)C)Cc3cccc(O)c3)c2)C1C(=O)NC1CC2CC(C1C)C2(C)C (centres unmarked) [Compound 378] | 2 to 5 µM |  | 
♯ | < 0.8 µM | C[C@@H]1[C@@H](NC(=O)[C@@H]2C([C@H](C)O)[C@H](CO)ON2Cc2cccc(CN(CCN(C)C)Cc3cccc(F)c3F)c2)C[C@H]2C[C@@H]1C2(C)C (some centres unmarked) [Compound 362] | 2 to 5 µM |  | 
♯ | < 0.8 µM | C[C@@H]1[C@@H](NC(=O)[C@@H]2[C@H]([C@H](C)O)[C@H](CO)ON2Cc2cccc(N(CCCN(C)C)Cc3ccccc3C(F)(F)F)c2)C[C@H]2C[C@@H]1C2(C)C [Compound 585] | 2 to 5 µM |  | 
♯ | < 0.8 µM | CC(C)C[C@@H](CN(C)C)N(Cc1cccc(CN2O[C@@H](CO)C([C@H](C)O)[C@H]2C(=O)N[C@H]2C[C@H]3C[C@@H]([C@@H]2C)C3(C)C)c1)Cc1c(Cl)cccc1[N+](=O)[O-] (some centres unmarked) [Compound 322] | 2 to 5 µM |  | 
♯ | < 0.8 µM | C[C@@H]1[C@@H](NC(=O)[C@@H]2C([C@H](C)O)[C@H](CO)ON2Cc2cccc(CN3[C@@H](CN(C)C)CC[C@H]3c3ccccc3)c2)C[C@H]2C[C@@H]1C2(C)C (some centres unmarked) [Compound 448] | 2 to 5 µM |  | 
♯ | < 0.8 µM | CCOc1cccc(CN(CCN(C)C)Cc2cccc(CN3OC(CO)C(C(C)O)C3C(=O)NC3CC4CC(C3C)C4(C)C)c2)c1 (centres unmarked) [Compound 383] | 2 to 5 µM |  | 
♯ | < 0.8 µM | CC(O)C1C(CO)ON(Cc2cccc(CN(CCN(C)C)Cc3c(Cl)cccc3Cl)c2)C1C(=O)NC1CC2CC(C1C)C2(C)C (centres unmarked) [Compound 373] | 2 to 5 µM |  | 
♯ | < 0.8 µM | CC(C)CC(CN(C)C)N(Cc1cccc(CN2OC(CO)C(C(C)O)C2C(=O)NC2CC3CC(C2C)C3(C)C)c1)Cc1cccc(C(F)(F)F)c1 (centres unmarked) [Compound 326] | 2 to 5 µM |  | 
♯ | < 0.8 µM | C[C@@H]1[C@@H](NC(=O)[C@@H]2[C@H]([C@H](C)O)[C@H](CO)ON2Cc2cccc(NC(=O)N[C@H](CC3CCCCC3)CN(C)C)c2)C[C@H]2C[C@@H]1C2(C)C [Compound 574] | 2 to 5 µM |  | 
♯ | < 0.8 µM | CC(O)C1C(CO)ON(Cc2cccc(NC(=O)NC(CCc3ccccc3)CN(C)C)c2)C1C(=O)NC1CC2CC(C1C)C2(C)C (centres unmarked) [Compound 572] | 2 to 5 µM |  | 
♯ | < 0.8 µM | CC(C)CC(CN(C)C)N(Cc1ccc(C(F)(F)F)cc1)Cc1cccc(CN2OC(CO)C(C(C)O)C2C(=O)NC2CC3CC(C2C)C3(C)C)c1 (centres unmarked) [Compound 327] | < 2 µM |  | 
♯ | < 0.8 µM | COc1ccccc1CN(CCN(C)C)Cc1cccc(CN2OC(CO)C(C(C)O)C2C(=O)NC2CC3CC(C2C)C3(C)C)c1 (centres unmarked) [Compound 351] | 2 to 5 µM |  | 
